Assay results published in PubChem BioAssay AID1259407 (Chemical Carcinogenesis Research Information System (CCRIS), 2018).
Active and inactive are the calls of the source. No rule for the calls is given here.

Test system: CCRIS mutagenicity, Ames/micronucleus/aberration tests
Assay: CCRIS mutagenicity studies
[1] = Test System: AMES SALMONELLA TYPHIMURIUM, Strain/Indicator: TA98, Metabolic Activation: NONE, Method: PREINCUBATION
[2] = Test System: AMES SALMONELLA TYPHIMURIUM, Strain/Indicator: TA98, Metabolic Activation: RAT, LIVER, S-9, AROCLOR 1254 (10%), Method: PREINCUBATION
[3] = Test System: AMES SALMONELLA TYPHIMURIUM, Strain/Indicator: TA100, Metabolic Activation: HAMSTER, LIVER, S-9, AROCLOR 1254 (10%), Method: PREINCUBATION
[4] = Test System: AMES SALMONELLA TYPHIMURIUM, Strain/Indicator: TA100, Metabolic Activation: NONE, Method: PREINCUBATION
[5] = Test System: AMES SALMONELLA TYPHIMURIUM, Strain/Indicator: TA100, Metabolic Activation: RAT, LIVER, S-9, AROCLOR 1254 (10%), Method: PREINCUBATION
[6] = Test System: AMES SALMONELLA TYPHIMURIUM, Strain/Indicator: TA1535, Metabolic Activation: HAMSTER, LIVER, S-9, AROCLOR 1254 (10%), Method: PREINCUBATION
[7] = Test System: AMES SALMONELLA TYPHIMURIUM, Strain/Indicator: TA1535, Metabolic Activation: NONE, Method: PREINCUBATION
[8] = Test System: AMES SALMONELLA TYPHIMURIUM, Strain/Indicator: TA1535, Metabolic Activation: RAT, LIVER, S-9, AROCLOR 1254 (10%), Method: PREINCUBATION
[9] = Test System: AMES SALMONELLA TYPHIMURIUM, Strain/Indicator: TA1537, Metabolic Activation: HAMSTER, LIVER, S-9, AROCLOR 1254 (10%), Method: PREINCUBATION
[10] = Test System: AMES SALMONELLA TYPHIMURIUM, Strain/Indicator: TA1537, Metabolic Activation: NONE, Method: PREINCUBATION
[11] = Test System: AMES SALMONELLA TYPHIMURIUM, Strain/Indicator: TA1537, Metabolic Activation: RAT, LIVER, S-9, AROCLOR 1254 (10%), Method: PREINCUBATION
[12] = Test System: AMES SALMONELLA TYPHIMURIUM, Strain/Indicator: TA98, Metabolic Activation: NONE, Method: STANDARD PLATE
[13] = Test System: AMES SALMONELLA TYPHIMURIUM, Strain/Indicator: TA100, Metabolic Activation: NONE, Method: STANDARD PLATE
[14] = Test System: AMES SALMONELLA TYPHIMURIUM, Strain/Indicator: TA100, Metabolic Activation: RAT, LIVER, S-9, AROCLOR 1254, Method: PREINCUBATION

In the case of `Nc1cccc(Cl)c1`, the mutagenic call (End Point: IN VITRO CHROMOSOMAL ABERRATIONS, Test System: CHL/IU CELLS, Metabolic Activation: NONE) is reported as “active; positive (structural changes)”, the mutagenic call (End Point: IN VITRO MICRONUCLEUS, Test System: CHL/IU CELLS, Metabolic Activation: NONE) is reported as “active; positive” and the mutagenic call [1] is reported as “inactive; negative”. For the same molecule, the mutagenic call [2] was “inactive; negative”, the mutagenic call [3] was “inactive; negative” and the mutagenic call [4] was “inactive; negative”. For the same molecule, the mutagenic call [5] was “inactive; negative”, the mutagenic call [6] was “inactive; negative” and the mutagenic call [7] was “inactive; negative”. For the same molecule, the mutagenic call [8] was “inactive; negative”, the mutagenic call [9] was “inactive; negative” and the mutagenic call [10] was “inactive; negative”. For the same molecule, the mutagenic call [11] was “inactive; negative”, the mutagenic call (Test System: CHINESE HAMSTER V-79, Strain/Indicator: V-79/8-AZAGUANINE, Metabolic Activation: NONE, Method: SUSPENSION/PLATE) was “active; positive” and the mutagenic call (Test System: CHINESE HAMSTER V-79, Strain/Indicator: V-79/OUABAIN, Metabolic Activation: NONE, Method: SUSPENSION/PLATE) was “inactive; negative”.

With `CC1(C)[C@H](C(=O)OCc2cccc(Oc3ccccc3)c2)[C@@H]1C=C(Cl)Cl` the mutagenic call (Test System: AMES SALMONELLA TYPHIMURIUM, Strain/Indicator: TA97, Metabolic Activation: NONE, Method: STANDARD PLATE) was “inactive; negative”, the mutagenic call (Test System: AMES SALMONELLA TYPHIMURIUM, Strain/Indicator: TA97, Metabolic Activation: RAT, LIVER, S-9, PHENOBARBITONE, Method: STANDARD PLATE) was “inactive; negative” and the mutagenic call [12] was “inactive; negative”. For the same molecule, the mutagenic call (Test System: AMES SALMONELLA TYPHIMURIUM, Strain/Indicator: TA98, Metabolic Activation: RAT, LIVER, S-9, PHENOBARBITONE, Method: STANDARD PLATE) was “inactive; negative”, the mutagenic call [13] was “inactive; negative” and the mutagenic call (Test System: AMES SALMONELLA TYPHIMURIUM, Strain/Indicator: TA100, Metabolic Activation: RAT, LIVER, S-9, PHENOBARBITONE, Method: STANDARD PLATE) was “inactive; negative”. For the same molecule, the mutagenic call (Test System: AMES SALMONELLA TYPHIMURIUM, Strain/Indicator: TA104, Metabolic Activation: NONE, Method: STANDARD PLATE) was “inactive; negative” and the mutagenic call (Test System: AMES SALMONELLA TYPHIMURIUM, Strain/Indicator: TA104, Metabolic Activation: RAT, LIVER, S-9, PHENOBARBITONE, Method: STANDARD PLATE) was “inactive; negative”.

In the case of `OCc1cc2ccccc2c2ccc3ccccc3c12`, the mutagenic call (Test System: AMES SALMONELLA TYPHIMURIUM, Strain/Indicator: TA98, Metabolic Activation: RAT, LIVER, CYTOSOL AND PAPS GENERATING SYSTEM, Method: PREINCUBATION) is reported as “active; positive” and the mutagenic call (Test System: AMES SALMONELLA TYPHIMURIUM, Strain/Indicator: TA98, Metabolic Activation: RAT, LIVER, S-9 AND NADPH GENERATING SYSTEM, Method: PREINCUBATION) is reported as “inactive; negative”.

With `CNc1ccc2nc(C)cnc2c1C` the mutagenic call [1] was “inactive; negative”, the mutagenic call (Test System: AMES SALMONELLA TYPHIMURIUM, Strain/Indicator: TA98, Metabolic Activation: RAT, LIVER, S-9, PCB, Method: PREINCUBATION) was “active; positive” and the mutagenic call [4] was “inactive; negative”. For the same molecule, the mutagenic call (Test System: AMES SALMONELLA TYPHIMURIUM, Strain/Indicator: TA100, Metabolic Activation: RAT, LIVER, S-9, PCB, Method: PREINCUBATION) was “active; positive”.

`CCC(C)c1ccccc1O` (stereo unspecified) was tested, and the mutagenic call (Test System: AMES SALMONELLA TYPHIMURIUM, Strain/Indicator: TA98, Metabolic Activation: HAMSTER, LIVER, S-9, AROCLOR 1254 (10%), Method: PREINCUBATION) was “inactive; negative”, the mutagenic call [1] was “inactive; negative” and the mutagenic call (Test System: AMES SALMONELLA TYPHIMURIUM, Strain/Indicator: TA98, Metabolic Activation: RAT LIVER S-9, PHENOBARBITAL AND BETA-NAPHTHOFLAVONE, Method: PREINCUBATION) was “inactive; negative”. The mutagenic call [2] was “inactive; negative”, the mutagenic call [3] was “inactive; negative” and the mutagenic call [4] was “inactive; negative”. For the same molecule, the mutagenic call (Test System: AMES SALMONELLA TYPHIMURIUM, Strain/Indicator: TA100, Metabolic Activation: RAT LIVER S-9, PHENOBARBITAL AND BETA-NAPHTHOFLAVONE, Method: PREINCUBATION) was “inactive; negative”, the mutagenic call [5] was “inactive; negative” and the mutagenic call [6] was “inactive; negative”. The mutagenic call [7] was “inactive; negative”, the mutagenic call (Test System: AMES SALMONELLA TYPHIMURIUM, Strain/Indicator: TA1535, Metabolic Activation: RAT LIVER S-9, PHENOBARBITAL AND BETA-NAPHTHOFLAVONE, Method: PREINCUBATION) was “inactive; negative” and the mutagenic call [8] was “inactive; negative”. The mutagenic call [9] was “inactive; negative”, the mutagenic call [10] was “inactive; negative” and the mutagenic call (Test System: AMES SALMONELLA TYPHIMURIUM, Strain/Indicator: TA1537, Metabolic Activation: RAT LIVER S-9, PHENOBARBITAL AND BETA-NAPHTHOFLAVONE, Method: PREINCUBATION) was “inactive; negative”. For the same molecule, the mutagenic call [11] was “inactive; negative”, the mutagenic call (Test System: E.COLI, Strain/Indicator: WP2UVRA/PKM101, Metabolic Activation: NONE, Method: PREINCUBATION) was “inactive; negative” and the mutagenic call (Test System: E.COLI, Strain/Indicator: WP2UVRA/PKM101, Metabolic Activation: RAT LIVER S-9, PHENOBARBITAL AND BETA-NAPHTHOFLAVONE, Method: PREINCUBATION) was “inactive; negative”.

With `C[C@]12CCC=C(C=O)[C@@]1(C=O)C2` the mutagenic call [12] was “active; positive” and the mutagenic call [13] was “active; positive”.

With `O=[N+]([O-])c1cccc(CBr)c1` the mutagenic call [1] was “inactive; negative”, the mutagenic call [4] was “inactive; negative” and the mutagenic call [14] was “inactive; negative”.

`CC1=C(O)C(=O)CC1` was tested, and the mutagenic call [1] was “inactive; negative”, the mutagenic call (Test System: AMES SALMONELLA TYPHIMURIUM, Strain/Indicator: TA98, Metabolic Activation: RAT, LIVER, S-9, AROCLOR 1254, Method: PREINCUBATION) was “inactive; negative” and the mutagenic call [4] was “inactive; negative”. For the same molecule, the mutagenic call [14] was “inactive; negative”, the mutagenic call (Test System: AMES SALMONELLA TYPHIMURIUM, Strain/Indicator: TA102, Metabolic Activation: NONE, Method: PREINCUBATION) was “inactive; negative” and the mutagenic call (Test System: AMES SALMONELLA TYPHIMURIUM, Strain/Indicator: TA102, Metabolic Activation: RAT, LIVER, S-9, AROCLOR 1254, Method: PREINCUBATION) was “inactive; negative”.

With `CC12CCC(CC1=O)C2(C)C` (stereo unspecified) (tested in a mixture with another compound) the mutagenic call (End Point: IN VITRO CHROMOSOMAL ABERRATIONS, Test System: SYRIAN HAMSTER EMBRYO (SHE) CELLS, Metabolic Activation: NONE) was “active; positive (structural changes)” and the mutagenic call (End Point: In vitro chromosomal aberrations, Test System: D824 human dental pulp cells, Metabolic Activation: Rat, Liver, Postmitochondrial supernate (5%)) was “inactive; negative”.

For `OCNc1ncnc2c1ncn2[C@@H]1O[C@H](CO)[C@@H](O)[C@H]1O`, the mutagenic call (Test System: AMES SALMONELLA TYPHIMURIUM, Strain/Indicator: TA100(TN5-1,8-DNP1011), Metabolic Activation: NONE, Method: STANDARD PLATE) was “inactive; negative”, the mutagenic call (Test System: AMES SALMONELLA TYPHIMURIUM, Strain/Indicator: TA100(TN5-1,8-DNP1012), Metabolic Activation: NONE, Method: STANDARD PLATE) was “active; positive” and the mutagenic call [13] was “inactive; negative”.

In the case of `Nc1ccccc1C(=O)C[C@H](N)C(=O)O`, the mutagenic call [4] is reported as “inactive; negative”.

In the case of `[N-]=[N+]=CC(=O)NCC(=O)NN`, the mutagenic call (Test System: AMES SALMONELLA TYPHIMURIUM, Strain/Indicator: TA1535, Metabolic Activation: NONE, Method: STANDARD PLATE) is reported as “active; positive” and the mutagenic call (Test System: UDS RODENT CELLS, Strain/Indicator: THY INCORP (NON-S-PHASE), Metabolic Activation: NONE, Method: AUTORADIOGRAPHY) is reported as “active; positive”.
